Experimental data reported in patent US11999727B2 (Tango Therapeutics, Inc., priority 2020, dated 2024).

Key:
PRMT5 [1] = target: T1, PRMT5 (Homo sapiens, UniProt O14744); assay: PRMT5 biochemical IC50 assay with MTA as cofactor; conditions: PRMT5, MTA as cofactor; read-out: MTA IC50
T1 construct: purchased Viva (custom protein)

[2] = test system: HAP1 MTAP-deleted cell line; assay: SDMA in-cell western assay, HAP1 MTAP-deleted; type: cell-based; conditions: for IC50: Homo sapiens, HAP1, SDMA in-cell western, HAP1 MTAP-deleted, read-out: HAP1 MTAP deleted IC50; for MTAP intact/deleted ratio: IC50 ratio HAP1 MTAP-intact / HAP1 MTAP-deleted, SDMA in-cell western
Method in brief: (§1)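 Readout: in-cell western detection of SDMA. Cells: HAP1 expressing endogenous MTAP and an MTAP-null HAP1 counterpart. Output: IC50.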

PRMT5 [3] = target: T1, PRMT5; assay: PRMT5 biochemical IC50 assay with SAM as cofactor; conditions: PRMT5, SAM as cofactor; read-out: SAM IC50
[4] = test system: HAP1 MTAP-intact cell line; assay: SDMA in-cell western assay, HAP1 MTAP-intact; type: cell-based; conditions: Homo sapiens, HAP1, SDMA in-cell western, HAP1 MTAP-intact; read-out: MTAP HAP1 intact IC50
Method in brief: as §1

PRMT5 [5] = target: T1, PRMT5; assay: PRMT5 biochemical IC50 assay with no cofactor; conditions: PRMT5, no cofactor; read-out: No Cofactor/rel IC50
Source text: Table 1 indicates IC50 values (μM) against PRMT5 for exemplary compounds in the presence of SAM as cofactor, with no cofactor, and with MTA as cofactor, respectively (columns 4-6). […] Ki values can be calculated from the IC50 values as described in the Examples section. As detailed in the Examples section, for the assay performed in the presence of SAM, IC50=Ki×1.5 (Ki=IC50/1.5).

[6] = test system: HAP1 MTAP-deleted cell line; assay: Viability assay, MTAP-deleted cell line; type: cell-based; conditions: Homo sapiens, HAP1, viability assay, MTAP-deleted cell line; read-out: HAP1 MTAP deleted viability
Source text: Table 1 additionally indicates IC50 values in a viability assay for the MTAP-deleted cell line (column 10), indicating the effect of treatment with compound on cell survival.

T1 sequence (O14744 whole entry): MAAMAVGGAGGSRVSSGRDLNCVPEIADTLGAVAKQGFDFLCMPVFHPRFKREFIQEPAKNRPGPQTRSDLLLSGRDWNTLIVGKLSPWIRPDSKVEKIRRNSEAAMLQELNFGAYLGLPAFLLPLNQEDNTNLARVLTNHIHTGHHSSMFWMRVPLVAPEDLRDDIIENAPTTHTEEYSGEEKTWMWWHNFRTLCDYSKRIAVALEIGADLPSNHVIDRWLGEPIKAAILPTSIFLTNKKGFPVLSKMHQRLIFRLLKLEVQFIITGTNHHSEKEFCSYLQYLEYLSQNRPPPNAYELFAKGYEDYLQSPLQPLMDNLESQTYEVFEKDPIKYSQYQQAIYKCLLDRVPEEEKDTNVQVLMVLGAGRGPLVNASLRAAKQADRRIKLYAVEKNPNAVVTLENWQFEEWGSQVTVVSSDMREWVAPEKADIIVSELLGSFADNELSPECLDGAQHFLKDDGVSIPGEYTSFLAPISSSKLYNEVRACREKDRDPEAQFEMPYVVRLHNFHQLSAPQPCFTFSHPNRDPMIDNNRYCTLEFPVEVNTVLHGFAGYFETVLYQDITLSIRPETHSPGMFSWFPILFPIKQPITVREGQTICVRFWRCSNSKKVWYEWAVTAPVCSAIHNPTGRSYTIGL
T1 sequence (Q9BQA1 whole entry partner): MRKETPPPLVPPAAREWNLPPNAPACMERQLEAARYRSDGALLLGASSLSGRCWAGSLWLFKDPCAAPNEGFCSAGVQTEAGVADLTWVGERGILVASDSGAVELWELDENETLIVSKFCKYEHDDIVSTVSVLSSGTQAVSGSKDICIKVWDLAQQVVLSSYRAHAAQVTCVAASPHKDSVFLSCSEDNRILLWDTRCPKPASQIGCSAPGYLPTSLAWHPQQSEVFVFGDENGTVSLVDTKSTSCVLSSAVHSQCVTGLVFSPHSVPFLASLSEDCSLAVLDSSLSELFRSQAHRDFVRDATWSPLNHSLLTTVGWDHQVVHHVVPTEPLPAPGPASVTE

Row | IC50 (PRMT5 [1]) [nM] | IC50 [2] [nM] | IC50 (PRMT5 [3]) [nM] | IC50 [4] [nM] | IC50 (PRMT5 [5]) [nM] | Compound | MTAP intact/deleted ratio [2] | IC50 [6] [nM]
1 | > 500 | > 1000 | > 500 | > 1000 | > 500 | C[C@@H]1CC[C@@H](c2ccc(O)nc2)N(C(=O)C(=O)Nc2cncc(C(N)=O)c2)C1 (single isomer, unassigned) [Compound 351] | C (an IC50 ratio of less than 3 fold) | > 10000
2 | < 50 | 100 to 1000 | 50 to 500 | > 1000 | 50 to 500 | N#C[C@H]1CCN(C(=O)C(=O)Nc2cncc(C(N)=O)c2)[C@@H](c2ccccc2)C1 (single isomer, unassigned) [Compound 352] | A (an IC50 ratio greater than or equal to 10 fold) | > 10000
3 | > 500 | > 1000 | > 500 | > 1000 | > 500 | N#C[C@@H]1CCN(C(=O)C(=O)Nc2cncc(C(N)=O)c2)[C@H](c2ccccc2)C1 (single isomer, unassigned) [Compound 353] | C (an IC50 ratio of less than 3 fold) | > 10000
4 | < 50 | < 100 | 50 to 500 | 100 to 1000 | < 50 | C[C@H]1CC[C@H](c2ccc(O)c(F)c2)N(C(=O)C(=O)Nc2cncc(C(N)=O)c2)C1 (single isomer, unassigned) [Compound 354] | A (an IC50 ratio greater than or equal to 10 fold) | < 1000
5 | > 500 | > 1000 | > 500 | > 1000 | > 500 | C[C@@H]1CC[C@@H](c2ccc(O)c(F)c2)N(C(=O)C(=O)Nc2cncc(C(N)=O)c2)C1 (single isomer, unassigned) [Compound 355] | C (an IC50 ratio of less than 3 fold) | > 10000
6 | < 50 | < 100 | 50 to 500 | > 1000 | 50 to 500 | CNc1cccc([C@H]2CCCCN2C(=O)C(=O)Nc2cnc(N)c(C)c2)c1 (single isomer, unassigned) [Compound 356] | A (an IC50 ratio greater than or equal to 10 fold) | 1000 to 10000
7 | 50 to 500 | 100 to 1000 | 50 to 500 | > 1000 | > 500 | CNc1cccc([C@@H]2CCCCN2C(=O)C(=O)Nc2cnc(N)c(C)c2)c1 (single isomer, unassigned) [Compound 357] | A (an IC50 ratio greater than or equal to 10 fold) | > 10000
8 | < 50 | < 100 | 50 to 500 | > 1000 | 50 to 500 | CN(C)c1cccc([C@@H]2CCCCN2C(=O)C(=O)Nc2cncc(C(N)=O)c2)c1 (single isomer, unassigned) [Compound 365] | A (an IC50 ratio greater than or equal to 10 fold) | 1000 to 10000
9 | 50 to 500 | > 1000 | > 500 | > 1000 | > 500 | CN(C)c1cccc([C@H]2CCCCN2C(=O)C(=O)Nc2cncc(C(N)=O)c2)c1 (single isomer, unassigned) [Compound 366] | C (an IC50 ratio of less than 3 fold) | > 10000
10 | 50 to 500 | > 1000 | > 500 | > 1000 | > 500 | Cc1c(NC(=O)C(=O)N2C[C@H](C)CC[C@H]2c2ccccc2)cnc(N)c1C (single isomer, unassigned) [Compound 367] | C (an IC50 ratio of less than 3 fold) | > 10000
11 | < 50 | < 100 | 50 to 500 | > 1000 | 50 to 500 | Cc1c(NC(=O)C(=O)N2C[C@@H](C)CC[C@@H]2c2ccccc2)cnc(N)c1C (single isomer, unassigned) [Compound 368] | A (an IC50 ratio greater than or equal to 10 fold) | 1000 to 10000
12 | < 50 | 100 to 1000 | 50 to 500 | > 1000 | 50 to 500 | COc1ncc(NC(=O)C(=O)N2C[C@@H](C)CC[C@@H]2C2CCCCC2)cc1C(N)=O (single isomer, unassigned) [Compound 369] | A (an IC50 ratio greater than or equal to 10 fold) | 1000 to 10000
13 | > 500 | > 1000 | > 500 | > 1000 | > 500 | C[C@H]1CC[C@H](c2cccc(N(C)C)c2)N(C(=O)C(=O)Nc2cncc(C(N)=O)c2)C1 (single isomer, unassigned) [Compound 374] | C (an IC50 ratio of less than 3 fold) | > 10000
14 | < 50 | < 100 | 50 to 500 | > 1000 | 50 to 500 | C[C@@H]1CC[C@@H](c2cccc(N(C)C)c2)N(C(=O)C(=O)Nc2cncc(C(N)=O)c2)C1 (single isomer, unassigned) [Compound 375] | A (an IC50 ratio greater than or equal to 10 fold) | 1000 to 10000
15 | > 500 | > 1000 | > 500 | > 1000 | > 500 | C[C@H]1CC[C@H](c2ccc3c(c2)C[C@H](C)O3)N(C(=O)C(=O)Nc2cncc(C(N)=O)c2)C1 (single isomer, unassigned) [Compound 376] | C (an IC50 ratio of less than 3 fold) | > 10000
16 | > 500 | > 1000 | > 500 | > 1000 | > 500 | C[C@H]1CC[C@H](c2ccc3c(c2)C[C@@H](C)O3)N(C(=O)C(=O)Nc2cncc(C(N)=O)c2)C1 (single isomer, unassigned) [Compound 377] | C (an IC50 ratio of less than 3 fold) | > 10000
17 | > 500 | > 1000 | > 500 | > 1000 | > 500 | Cc1cc(NC(=O)C(=O)N2CC[C@H](C#N)C[C@@H]2c2ccccc2)cnc1N (single isomer, unassigned) [Compound 380] | C (an IC50 ratio of less than 3 fold) | > 10000
18 | < 50 | < 100 | 50 to 500 | > 1000 | < 50 | C[C@@H]1CC[C@@H](c2ccc(N)cc2)N(C(=O)C(=O)Nc2cncc(C(N)=O)c2)C1 (single isomer, unassigned) [Compound 381] | A (an IC50 ratio greater than or equal to 10 fold) | < 1000
19 | > 500 | > 1000 | > 500 | > 1000 | > 500 | C[C@H]1CC[C@H]([C@H]2CC[C@@H](O)CC2)N(C(=O)C(=O)Nc2cncc(C(N)=O)c2)C1 (single isomer, unassigned) [Compound 382] | C (an IC50 ratio of less than 3 fold) | > 10000
